Data taken from US8828942B2, “Means for treating synucleinopathies” (Affiris AG, priority 2009, dated 2014).
“Also recorded” adds a separate entry of the source.

Key:
[1] = test system: monoclonal antibody 12-9-9; test: In vitro binding assay (ELISA) with monoclonal antibody 12-9-9; parameters: species or system mouse; key to Binding: 0: no binding to 12-9-9 detectable in ELISA; 1: weak binding: binding of mimotope weaker compared to the minimal original sequence p5436; 2: strong binding: binding of mimotope similar to the minimal original sequence p5436; details: for Binding: binding capacity to 12-9-9 in ELISA, peptide-BSA coated (1 μM), compared with p5436; for detection/binding by monoclonal antibody 12-9-9 in ELISA: result in words
From the text: A monoclonal antibody derived from the fusion “AFFiRiS 6”: Balb/c mice (Charles River) were immunized with original alpha-synuclein epitope LGKNEEGAPQ-C (SEQ ID NO:3) coupled to BTG (bovine thyroglobuline) and CFA (complete Freund's adjuvant; first injection) as well as IFA (incomplete Freund's adjuvant; 3 booster injections) as adjuvant. LGKNEEGAPQ-peptide-specific (SEQ ID NO: 203) antibody-producing hybridomas are detected by ELISA (LGKNEEGAPQC-peptide-coated (SEQ ID NO: 3)ELISA plates). Human alpha-synuclein (recombinant protein, p4446) is used as positive control peptide: hybridomas recognizing the recombinant protein immobilized on ELISA plates are included because they are binding both peptide and full length alpha-synuclein specifically. […] The Hybridoma clone (12-9-9; IgG1, kappa) was analysed for specific detection of the natural human alpha-synuclein epitope LGKNEEGAPQ. (SEQ ID NO: 203). 12-9-9 recognizes the injected epitope as well as full length alpha-synuclein protein (recombinant protein; obtained from rPeptide, Bogart, Ga., USA) in ELISA (see FIG. 2). […] Thus the minimal required epitope for binding has been defined as KNEEGAP (SEQ ID NO: 139).
Peptides derived from Phage Display as well as N-terminally truncated variants thereof were coupled to BSA and bound to ELISA plates (1 μM) and subsequently incubated with the monoclonal antibody that was used for the screening procedure to analyse binding capacity of identified peptides (see FIG. 4).

[2] = test system: monoclonal antibody 12-9-9; test: In vitro inhibition assay (ELISA); assay type: binding, mouse; parameters: key: 0: no competition of 12-9-9 detectable in ELISA; 1: weak competition: competition of mimotope weaker compared to the minimal original sequence p5436; 2: strong competition: competition of mimotope similar to the minimal original sequence p5436; details: competition capacity in ELISA, peptide 400 μg/ml to 3 μg/ml, plates coated with p5436 and p4446
Description: Different amounts of peptides (concentrations ranging from 400 μg/ml to 3 μg/ml (serial dilutions), derived from Phage Display were incubated with the monoclonal antibody that was used for the screening procedure. Peptides diminishing subsequent binding of the antibody to the original human alpha-synuclein epitope (p5436) and the human alpha-synuclein protein (p4446) coated on ELISA plates were considered as inhibiting in this assay.

[3] = test system: recombinant human alpha-synuclein protein; test: In vivo testing of mimotopes: serum titer against alpha-synuclein (ELISA); details: mice immunized with peptide-KLH, alum, OD halfmax
Description: (§1) Inhibiting as well as non-inhibiting peptides were coupled to KLH and injected into mice (wildtype C57/B16 or BalbC mice; subcutaneous injection into the flank) together with an appropriate adjuvant (aluminium hydroxide). Animals were vaccinated 3 times in biweekly intervals and sera were taken biweekly as well. Titers to injected peptides as well as to an irrelevant peptide were determined with every serum. Titers against the recombinant human alpha-synuclein protein and recombinant human beta-synuclein were determined starting with Serum 2 respectively. In general sera were analysed by reaction against peptides coupled to Bovine Serum Albumin (BSA) and recombinant full length proteins which were immobilised on ELISA plates. Titers were determined using anti mouse IgG specific antibodies. For examples of immunogenicity against injected peptide and alpha-synuclein see Table 5 and Table 6.
(§2) Female C57/B16 mice or BalbC, 5-6 mice per group, were subcutaneously immunized with 30 μg peptide coupled to KLH. Control groups were injected with PBS or the original epitope. As adjuvant alum was used. The peptides administered were all able to bind to monoclonal antibodies specifically binding aa100-109 of human alpha-synuclein although some of the peptides did inhibit the binding of the original epitope to its parental antibody in vitro only weakly (in an in vitro inhibition assay). The in vitro ELISA assay to determine the antibody titer was performed with sera of single mice (see Tab. 5) after each vaccination in a two week interval. The wells of the ELISA plate were coated with mimotope-BSA conjugates. The positive control was performed by reaction of the parental antibody with the respective mimotope-BSA conjugate. The detection was performed with anti-mouse IgG. Additionally, recombinant proteins were immobilised on ELISA plates and sera reacted accordingly. For all mimotopes tested in C57/B16 mice or BalbC, antibodies reacting to the individual injected peptide could be detected after repeated vaccination. Although not all mice induced higher titer against alpha-synuclein (see tab. 5 for examples).

[4] = In vivo testing of mimotopes: serum titer against injected peptide (ELISA); details: mice, 30 μg peptide coupled to KLH, alum, s.c.; titer by ELISA as OD halfmax
Description: as §1, §2

Row | Substance | Binding [1] | further results
1 | ANDEGAPC [p5591, mimotope] | 2 | 
2 | ANEEGAPC [p5437, mimotope] | 2 | 
3 | APSWKGEC [p5556, mimotope] | 2 | Competition [2]: 1; class of immunogenicity: a Syn [3]: 0 (peptides inducing no immune response or a very low immune response with OD halfmax around 50 or lower.)
4 | ASEEGAPC [p5594, mimotope] | 1 | 
5 | Alpha-synuclein [p4446] | 2 | detection/binding by monoclonal antibody 12-9-9 in ELISA [1]: detected; also recorded: retained full binding capacities; detection/binding by monoclonal antibody 12-9-9 in ELISA ([1]; listed as Alpha-Synuclein): detected similarly; detection/binding by monoclonal antibody 12-9-9 in ELISA ([1]; listed as alpha-synuclein protein): recognizes
6 | Beta-Synuclein [p4447] |  | detection/binding by monoclonal antibody 12-9-9 in ELISA [1]: not detected; detection/binding by monoclonal antibody 12-9-9 in ELISA ([1]; listed as beta-synuclein protein): does not detect
7 | CKNEEGAP [p5435, reference compound] | 2 | Competition [2]: 1
8 | CTPSWKGE [p5560, mimotope] | 2 | 
9 | DPSFALEC [p5465, mimotope] | 2 | class of immunogenicity: a Syn [3]: 0 (peptides inducing no immune response or a very low immune response with OD halfmax around 50 or lower.)
10 | EEGAPQC [p5400, reference compound] |  | detection/binding by monoclonal antibody 12-9-9 in ELISA [1]: lost binding
11 | EGAPQC [p5401, reference compound] |  | detection/binding by monoclonal antibody 12-9-9 in ELISA [1]: lost binding
12 | GKNEEGAPQC [p5397, reference compound] | 2 | detection/binding by monoclonal antibody 12-9-9 in ELISA [1]: retained full binding capacities; Competition [2]: 2
13 | HNAEGAPC [p5598, mimotope] | 1 | 
14 | HNDEGAPC [p5596, mimotope] | 2 | 
15 | HNEEGAPC [p5444, mimotope] | 2 | detection/binding by monoclonal antibody 12-9-9 in ELISA [1]: detected much weaker than the human epitope
16 | HSAEGAPC [p5604, mimotope] | 1 | 
17 | HSDEGAPC [p5608, mimotope] | 1 | 
18 | HSEEGAPC [p5593, mimotope] | 1 | 
19 | KAEEGAPC [p5438, mimotope] | 1 | 
20 | KNDDGAPC [p5449, mimotope] | 2 | Competition [2]: 1

Row | Substance | Binding [1] | further results
21 | KNEAGAPC [p5440, mimotope] |  | detection/binding by monoclonal antibody 12-9-9 in ELISA [1]: not detected
22 | KNEDGAPC [p5446, mimotope] | 2 | Competition [2]: 1
23 | KNEEGAPQC [p5398, reference compound] | 2 | detection/binding by monoclonal antibody 12-9-9 in ELISA [1]: retained full binding capacities; Competition [2]: 2
24 | KPSFKNEC [p5461, mimotope] | 2 | class of immunogenicity: a Syn [3]: 0 (peptides inducing no immune response or a very low immune response with OD halfmax around 50 or lower.)
25 | KQEEGAPC [p5447, mimotope] | 2 | 
26 | KSAEGAPC [p5599, mimotope] | 2 | 
27 | KSDEGAPC [p5600, mimotope] | 2 | Competition [2]: 1; class of immunogenicity: a Syn [3]: 1 (peptides inducing an immune response with OD halfmax between 1000 and 51.)
28 | KSEDGAPC [p5601, mimotope] | 2 | 
29 | KSEEGAPC [p5448, mimotope] | 2 | Competition [2]: 1
30 | LGKNEC [p5406, reference compound] |  | detection/binding by monoclonal antibody 12-9-9 in ELISA [1]: lost binding
31 | LGKNEEC [p5405, reference compound] |  | detection/binding by monoclonal antibody 12-9-9 in ELISA [1]: lost binding
32 | LGKNEEGAC [p5403, reference compound] |  | detection/binding by monoclonal antibody 12-9-9 in ELISA [1]: lost binding
33 | LGKNEEGAPQC [p4453, reference compound] | 2 | detection/binding by monoclonal antibody 12-9-9 in ELISA [1]: detected; also recorded: retained full binding capacities
34 | LGKNEEGC [p5404, reference compound] |  | detection/binding by monoclonal antibody 12-9-9 in ELISA [1]: lost binding
35 | LPSFRLEC [p5466, mimotope] | 1 | class of immunogenicity: a Syn [3]: 0 (peptides inducing no immune response or a very low immune response with OD halfmax around 50 or lower.)
36 | MGKGEEGYPQC [p4454, reference compound] | 2 | Titer in animals OD halfmax injected pep. [4]: 17000; class of immunogenicity: a Syn [3]: 1 (peptides inducing an immune response with OD halfmax between 1000 and 51.)
37 | NEEGAPQC [p5399, reference compound] |  | detection/binding by monoclonal antibody 12-9-9 in ELISA [1]: lost binding
38 | QASFAMEC [p5547, mimotope] | 1 | 
39 | QASSKLDC [p5549, mimotope] | 1 | 
40 | QPSFAMEC [p5462, mimotope] | 2 | class of immunogenicity: a Syn [3]: 0 (peptides inducing no immune response or a very low immune response with OD halfmax around 50 or lower.)

Row | Substance | Binding [1] | further results
41 | QPSSKLDC [p5468, mimotope] | 2 | class of immunogenicity: a Syn [3]: 0 (peptides inducing no immune response or a very low immune response with OD halfmax around 50 or lower.)
42 | RNAEGAPC [p5597, mimotope] | 2 | Competition [2]: 1; class of immunogenicity: a Syn [3]: 1 (peptides inducing an immune response with OD halfmax between 1000 and 51.)
43 | RNDEGAPC [p5587, mimotope] | 2 | Competition [2]: 2; class of immunogenicity: a Syn [3]: 1 (peptides inducing an immune response with OD halfmax between 1000 and 51.)
44 | RNEDGAPC [p5588, mimotope] | 2 | Competition [2]: 1
45 | RQDDGAPC [p5610, mimotope] | 2 | 
46 | RQDEGAPC [p5602, mimotope] | 2 | Competition [2]: 1
47 | RQEDGAPC [p5603, mimotope] | 2 | Competition [2]: 1
48 | RQEEGAPC [p5589, mimotope] | 2 | 
49 | RSAEGAPC [p5605, mimotope] | 2 | 
50 | RSDEGAPC [p5606, mimotope] | 2 | 
51 | RSEDGAPC [p5607, mimotope] | 2 | 
52 | RSEEGAPC [p5590, mimotope] | 2 | Competition [2]: 1; class of immunogenicity: a Syn [3]: 1 (peptides inducing an immune response with OD halfmax between 1000 and 51.)
53 | SPSFKQEC [p5463, mimotope] | 2 | class of immunogenicity: a Syn [3]: 0 (peptides inducing no immune response or a very low immune response with OD halfmax around 50 or lower.)
54 | TASWKGEC [p5548, mimotope] | 2 | Competition [2]: 1
55 | TPAWKGEC [p5551, mimotope] | 1 | 
56 | TPSAKGEC [p5557, mimotope] |  | Competition [2]: 1
57 | TPSWAGEC [p5558, mimotope] | 2 | 
58 | TPSWKGEC [p5464, mimotope] | 2 | Competition [2]: 1; class of immunogenicity: a Syn [3]: 0 (peptides inducing no immune response or a very low immune response with OD halfmax around 50 or lower.)
